In series [1] the test system is Primary T cells. The experiment in a line: Antiproliferative activity (AP), mitotic index by flow cytometry. In kind it is cell-based. The note with it: read-out: AP50 (Inhibitory concentration 50% for antiproliferative capacity). The procedure: Primary T cells are cultured and exposed to different concentrations of the test compounds. Cell proliferation is analysed by measuring mitotic index (ie the number of cell divisions a population of cells undergoes) through flow cytometry based techniques. Mitotic index is expressed as percentage of untreated control. Inhibition of cell proliferation (AP) is then calculated (AP=100 minus % mitotic index compared to control, AP of control=0%). Inhibitory concentration 50% for antiproliferative capacity (AP50) is calculated.
(§1) In Tables 2, 3 and 4, ND means Not Determined.

In series [2] the test system is Primary T cells. As to the kind of experiment: Cytotoxicity, percentage of viable cells by flow cytometry. In kind it is cell-based. The note with it: viability. The procedure: Primary T cells are cultured and treated with different concentrations of the test compound. Viability is analysed by measuring through flow cytometry based techniques the percentage of viable cells, compared to untreated control=100%).
as §1

Series [3] concerns laboratory strain of HIV-1. The experiment in a line: Antiviral activity against HIV (AV), p24 in infected activated primary T cells. In kind it is cell-based. The note with it: for IC50: read-out: AV50 (Inhibitory concentration 50% for antiviral activity); for antiviral and antiproliferative activity and cytotoxicity profile (in words): summary of AV, AP and cytotoxicity assays. A digest of the protocol: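 Activated primary T cells infected with a laboratory HIV-1 strain were cultured with a range of compound concentrations. Replication was measured as p24, expressed as a percentage of untreated control, with AV = 100 − % p24. AV50 is the concentration giving 50% antiviral activity.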

Series [4] has as its target human CDK9/CyclinT kinase complex (Homo sapiens (Human), UniProt P50750). As to the kind of experiment: In vitro CDK9/CyclinT assay (IMAP fluorescent polarization). In kind it is biochemical. The procedure:
The activity of the compounds described in the present invention can be determined by measuring the phosphorylation of a fluorescently-labeled peptide by human CDK9/CyclinT kinase complex by fluorescent polarization using a commercially available IMAP Screening Express Assay Kit (Molecular devices).
Test compounds were diluted in 100% DMSO to 5 mM stock concentration, then further dilutions were made in H2O or 100% DMSO to desirable concentrations.
Each reaction consisted of 5 nM enzyme: CDK9/CyclinT (Proqinase cat#0371-0345-1), 400 nM TAMRA-Rbtide (synthetic 15-mer peptide derived from human retinoblastoma tumor suppressor protein labeled with TAMRA dye, Genecust Europe), 12 μM ATP (=Kmapp, Sigma-Aldrich) and kinase buffer: 20 mM MOPS pH 7 (Sigma-Aldrich), 1 mM DTT (Sigma-Aldrich), 10 mM MgCl2 (Sigma-Aldrich), 0.01% Tween 20 (Sigma-Aldrich).
For each reaction, 4 or 6 μl containing TAMRA-Rbtide, ATP and kinase buffer were combined with 2 μl diluted compound in H2O or 0.028 μl compound in 100% DMSO. The kinase reaction was started by the addition of 2 μl diluted enzyme. The reaction was allowed to run for 1 hour at room temperature. The reaction was stopped by adding 15 μl IMAP beads (1:400 beads in progressive (100% buffer A) 1× buffer).

Setting [5] is: Human immunodeficiency virus 1, T-cell.
The mark [6] stands for this setting: T-cell, primary T cells, mitotic index.

The results in this text go back to US10294218B2 (VIROSTATICS SRL, priority 2012, dated 2019).

Molecules are shown by their SMILES. Structures can show the parent of a compound that is named as a salt. Where two headings read alike, the source gives them in different places.

Chain of human CDK9/CyclinT kinase complex (P50750 whole entry): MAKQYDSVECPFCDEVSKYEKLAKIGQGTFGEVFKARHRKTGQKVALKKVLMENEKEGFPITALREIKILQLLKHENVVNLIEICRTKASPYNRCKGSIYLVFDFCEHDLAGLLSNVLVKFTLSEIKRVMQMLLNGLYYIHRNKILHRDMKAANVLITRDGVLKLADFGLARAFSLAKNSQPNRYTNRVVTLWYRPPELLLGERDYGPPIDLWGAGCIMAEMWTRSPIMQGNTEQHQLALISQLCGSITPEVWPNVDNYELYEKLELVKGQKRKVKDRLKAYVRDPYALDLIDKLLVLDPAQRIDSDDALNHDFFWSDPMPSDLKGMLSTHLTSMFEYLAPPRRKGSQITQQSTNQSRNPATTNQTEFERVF
Chain of human CDK9/CyclinT kinase complex (O60563 whole entry partner): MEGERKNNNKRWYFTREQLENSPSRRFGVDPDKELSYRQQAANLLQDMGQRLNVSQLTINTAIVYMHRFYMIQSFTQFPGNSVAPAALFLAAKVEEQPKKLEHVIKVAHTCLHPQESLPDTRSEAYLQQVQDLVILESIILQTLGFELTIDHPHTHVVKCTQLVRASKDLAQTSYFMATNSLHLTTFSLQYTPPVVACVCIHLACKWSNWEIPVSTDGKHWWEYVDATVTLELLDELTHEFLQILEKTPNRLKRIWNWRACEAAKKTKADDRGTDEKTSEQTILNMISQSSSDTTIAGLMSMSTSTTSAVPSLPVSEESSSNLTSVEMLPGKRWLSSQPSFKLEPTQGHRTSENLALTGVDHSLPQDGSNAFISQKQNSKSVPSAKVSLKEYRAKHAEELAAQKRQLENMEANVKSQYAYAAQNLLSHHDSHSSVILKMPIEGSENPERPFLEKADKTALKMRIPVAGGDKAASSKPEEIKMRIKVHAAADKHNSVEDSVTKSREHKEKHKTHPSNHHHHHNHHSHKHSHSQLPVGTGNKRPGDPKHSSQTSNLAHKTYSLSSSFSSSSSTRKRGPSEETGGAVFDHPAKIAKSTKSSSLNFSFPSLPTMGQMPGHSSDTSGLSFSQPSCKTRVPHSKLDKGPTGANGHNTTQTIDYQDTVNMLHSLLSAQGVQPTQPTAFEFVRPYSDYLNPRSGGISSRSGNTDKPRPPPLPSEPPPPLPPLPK

Consider `COc1ccccc1-c1cc(Nc2ccc(N(C)C)cc2)ncn1` [Example 5, N^1-(6-(2-methoxyphenyl)pyrimidin-4-yl)-N^4,N^4-dimethylbenzene-1,4-diamine], for which the IC50 in the series with Primary T cells [1] (T-cell) was found to be 150 nM; in series [3] (setting [5]), 300 nM. In the series on Primary T cells [2], the “TD50 (Toxic dose 50%)” value is greater than 10 µM. For the same compound, in series [3], the “antiviral and antiproliferative activity and cytotoxicity profile (in words)” value was “good antiviral and antiproliferative activity and a good cytotoxicity profile”.

With `COc1ccc(Nc2cc(-c3ccc(F)cc3OC)ncn2)cc1OC(C)=O` [Example 126, Acetic Acid 5-[6-(4-fluoro-2-methoxy-phenyl)-pyrimidin-4-ylamino]-2-methoxy-phenyl Ester], in the series with Primary T cells [2], the “TD50 (Toxic dose 50%)” value was greater than 2 µM. For the same compound, the IC50 in series [3] (setting [5]) stood at 100 nM.

Turning to `COC(=O)Nc1cc(Nc2cc(-c3ccc(F)cc3OC)ncn2)ccc1OC` [Example 118, {5-[6-(4-Fluoro-2-methoxy-phenyl)-pyrimidin-4-ylamino]-2-methoxy-phenyl}-carbamic Acid Methyl Ester], the “TD50 (Toxic dose 50%)” value in the series with Primary T cells [2] was greater than 2 µM. The IC50 in series [3] (setting [5]) is 1500 nM.

`COc1ccc(Nc2cc(-c3ccccc3OC)ncn2)cc1CN1C(=O)c2ccccc2C1=O` [Example 3, 2-(2-Methoxy-5-(6-(2-methoxyphenyl)pyrimidin-4-ylamino)benzyl)isoindoline-1,3-dione]: the IC50 in the series on Primary T cells [1] (T-cell) was greater than 1000 nM. Further, the “TD50 (Toxic dose 50%)” value in the series with Primary T cells [2] is greater than 5 µM.

As to `CC[C@H](CO)Nc1nc(NCc2ccccc2)c2ncn(C(C)C)c2n1` [Roscovitine, reference compound], the “TD50 (Toxic dose 50%)” value in the series with Primary T cells [2] was 8 µM. Further, in series [3] (summary of AV and cytotoxicity assays), the “anti-HIV and cytotoxicity profile (in words)” value is “poor anti-HIV and cytotoxicity profile”.

In turn, `COc1ccccc1-c1cc(Nc2ccc(Cl)c(O)c2)ncn1` [Example 107, 2-Chloro-5-[6-(2-methoxy-phenyl)-pyrimidin-4-ylamino]-phenol Hydrochloride] had an IC50 in series [4] of less than 1000 nM.

Take `CNCc1cc(Nc2cc(-c3ccccc3OC)ncn2)ccc1OC` [Example 37, N-(4-Methoxy-3-((methylamino)methyl)phenyl)-6-(2-methoxyphenyl)pyrimidin-4-amine]: the IC50 in the series on Primary T cells [1] (primary T cells, mitotic index) was 2000 nM; in series [3] (HIV-1 infected activated primary T cells, p24) it was greater than 1500 nM. In addition, in the series on Primary T cells [2], the “TD50 (Toxic dose 50%)” value was 2 µM.

`COc1ccccc1-c1cc(Nc2ccc(N(C)C)c(F)c2)ncn1` [Example 106, 2-Fluoro-N^4-[6-(2-methoxy-phenyl)-pyrimidin-4-yl]-N^1,N^1-dimethyl-benzene-1,4-diamine Hydrochloride] displayed an IC50 in series [4] of less than 1000 nM.

Regarding `COc1ccc(Nc2cc(-c3ccccc3OC)ncn2)cc1C(=O)N(C)N` [Example 46, 2-Methoxy-5-[6-(2-methoxy-phenyl)-pyrimidin-4-ylamino]-benzoic acid N-methyl-hydrazide], in the series with Primary T cells [2], the “TD50 (Toxic dose 50%)” value is greater than 10 µM. The IC50 in series [3] (setting [5]) was 5000 nM.

Take `CCOc1ccccc1-c1cc(Nc2ccc(OC)c(C(N)=O)c2)ncn1` [Example 129, 5-[6-(2-Ethoxy-phenyl)-pyrimidin-4-ylamino]-2-methoxy-benzamide]: the IC50 in the series with Primary T cells [1] (T-cell) was less than 80 nM; in series [3] (setting [5]), 10 nM. Moreover, the “antiviral and antiproliferative activity and cytotoxicity profile (in words)” value in series [3] was “good antiviral and antiproliferative activity and a good cytotoxicity profile”.

On to `COc1ccc(Nc2cc(-c3ccccc3OC)ncn2)cc1OCCN1CCOCC1` [Example 8, N-(4-Methoxy-3-(2-morpholinoethoxy)phenyl)-6-(2-methoxyphenyl)pyrimidin-4-amine], for which the IC50 in the series on Primary T cells [1] (T-cell) is greater than 1500 nM; in series [3] (setting [5]) it was 400 nM. Also, the “TD50 (Toxic dose 50%)” value in the series with Primary T cells [2] was greater than 1.5 µM.

In the case of `COc1ccc(Nc2cc(-c3ccccc3OC)ncn2)cc1NC(=O)OCC(Cl)(Cl)Cl` [Example 27, 2,2,2-Trichloroethyl 2-methoxy-5-(6-(2-methoxyphenyl)pyrimidin-4-ylamino)phenylcarbamate], the IC50 (with Primary T cells [1] (T-cell); in series [3] (setting [5])) was greater than 500 nM throughout. For the same compound, the “TD50 (Toxic dose 50%)” value in the series with Primary T cells [2] is greater than 0.5 µM.

Regarding `COc1ccccc1-c1cc(Nc2ccc(Cl)c(CN3C(=O)c4ccccc4C3=O)c2)ncn1` [Example 20, 2-(2-Chloro-5-(6-(2-methoxyphenyl)pyrimidin-4-ylamino)benzyl)isoindoline-1,3-dione], the IC50 was greater than 500 nM in the series on Primary T cells [1] (T-cell) and greater than 1500 nM in series [3] (setting [5]). Also, the “TD50 (Toxic dose 50%)” value in the series with Primary T cells [2] is greater than 0.5 µM.

For `COc1ccc(Nc2cc(-c3ccc(F)cc3OC)ncn2)cc1NC(C)=O` [Example 117, N-{5-[6-(4-Fluoro-2-methoxy-phenyl)-pyrimidin-4-ylamino]-2-methoxy-phenyl}-acetamide], the “TD50 (Toxic dose 50%)” value in the series on Primary T cells [2] was greater than 2 µM. The IC50 in series [3] (setting [5]) came to 200 nM.

With `COc1ccccc1-c1cc(Nc2ccc(N3CCOCC3)c(CO)c2)ncn1` [Example 19, (5-(6-(2-Methoxyphenyl)pyrimidin-4-ylamino)-2-morpholinophenyl)methanol], the values for the IC50 (with Primary T cells [1] (setting [6]); in series [3] (setting [5])) were greater than 500 nM and 1000 nM, respectively.

With `COC(=O)c1cc(Nc2cc(-c3ccccc3OC)ncn2)ccc1O` [Example 21, Methyl 2-hydroxy-5-(6-(2-methoxyphenyl)pyrimidin-4-ylamino)benzoate], the results for the IC50 (in the series with Primary T cells [1] (setting [6]); in series [3] (setting [5])) were greater than 500 nM and less than 1500 nM, respectively.

Consider `COc1ccc(Nc2cc(-c3ccc(F)cc3OC)ncn2)cc1C(N)=O` [Example 128, 5-[6-(4-Fluoro-2-methoxy-phenyl)-pyrimidin-4-ylamino]-2-methoxy-benzamide], for which the figures for the IC50 (with Primary T cells [1] (T-cell); in series [3] (setting [5])) were 30 nM and less than 3 nM, respectively. Besides, in series [3], the “antiviral and antiproliferative activity and cytotoxicity profile (in words)” value is “good antiviral and antiproliferative activity and a good cytotoxicity profile”.

As for `COc1ccccc1-c1cc(Nc2ccc(F)c(Cn3cnc4ccccc43)c2)ncn1` [Example 40, N-(3-((1H-Benzo[d]imidazol-1-yl)methyl)-4-fluorophenyl)-6-(2-methoxyphenyl)pyrimidin-4-amine], the figures for the IC50 (in the series with Primary T cells [1] (setting [6]); in series [3] (setting [5])) were greater than 200 nM and 500 nM, respectively.

As to `COc1ccc(Nc2cc(-c3ccccc3OC)ncn2)cc1OCc1ccccc1` [Example 36, N-(3-(Benzyloxy)-4-methoxyphenyl)-6-(2-methoxyphenyl)pyrimidin-4-amine], in the series with Primary T cells [1] (T-cell), the IC50 was greater than 5000 nM. In the series with Primary T cells [2], the “TD50 (Toxic dose 50%)” value is greater than 5 µM.

Turning to `COc1cc(F)c(Nc2cc(-c3cc(F)ccc3OC)ncn2)cc1C(N)=O` [Example 144, 4-Fluoro-5-[6-(5-fluoro-2-methoxy-phenyl)-pyrimidin-4-ylamino]-2-methoxy-benzamide], the IC50 with Primary T cells [1] (T-cell) is 90 nM; in series [3] (setting [5]), less than 3 nM. Besides, the “antiviral and antiproliferative activity and cytotoxicity profile (in words)” value in series [3] was “good antiviral and antiproliferative activity and a good cytotoxicity profile”.
